Holding throughout (test): relative viability (nuclei count vs DMSO), 5 days (fraction); higher = more cells survive
Compound in the experiment “VX-11e + Foretinib”: CC1=CN=C(N=C1C2=CNC(=C2)C(=O)N[C@H](CO)C3=CC(=CC=C3)Cl)NC4=C(C=C(C=C4)F)Cl [VX-11e] + COc1cc2c(Oc3ccc(NC(=O)C4(C(=O)Nc5ccc(F)cc5)CC4)cc3F)ccnc2cc1OCCCN1CCOCC1 [Foretinib] (partner 0.25 µM)
In a few lines: (§1)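 Relative viability equals treated-well nuclei counts divided by vehicle-well nuclei counts. Counts came from 4× images of lung cancer cell lines grown in 1536-well plates for 5 days after pin-tool dosing on the day after seeding. Dosing used one drug alone or a fixed anchor-drug dose plus five library-drug doses (not always all listed) in √10 steps, and values are medians of duplicate plates.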

Compound in the experiment “VX-11e + Pictilisib”: CC1=CN=C(N=C1C2=CNC(=C2)C(=O)N[C@H](CO)C3=CC(=CC=C3)Cl)NC4=C(C=C(C=C4)F)Cl [VX-11e] + CS(=O)(=O)N1CCN(Cc2cc3nc(-c4cccc5[nH]ncc45)nc(N4CCOCC4)c3s2)CC1 [Pictilisib] (partner 1 µM)
The method, boiled down: as §1

Compound in the experiment “VX-11e + AZD7762”: CC1=CN=C(N=C1C2=CNC(=C2)C(=O)N[C@H](CO)C3=CC(=CC=C3)Cl)NC4=C(C=C(C=C4)F)Cl [VX-11e] + NC(=O)Nc1cc(-c2cccc(F)c2)sc1C(=O)N[C@H]1CCCNC1 [AZD7762] (partner 0.2 µM)
In a few lines:
as §1

Compound in the experiment “VX-11e + Vorinostat”: CC1=CN=C(N=C1C2=CNC(=C2)C(=O)N[C@H](CO)C3=CC(=CC=C3)Cl)NC4=C(C=C(C=C4)F)Cl [VX-11e] + O=C(CCCCCCC(=O)Nc1ccccc1)NO [Vorinostat] (partner 1 µM)
The method, boiled down: as §1

In the case of HOP-62, the relative viability with VX-11e + Foretinib (first compound 0.04 µM) came out at 1.22; in the experiment with VX-11e + Foretinib (first compound 0.1265 µM), 1.03; with VX-11e + Foretinib (first compound 0.4 µM), 1.16; with VX-11e + Foretinib (first compound 1.265 µM), 0.859; with VX-11e + Foretinib (first compound 4 µM) it was 0.589; with VX-11e + Pictilisib (first compound 0.04 µM), 0.42. Further, the relative viability with VX-11e + Pictilisib (first compound 0.1265 µM) is 0.51; with VX-11e + Pictilisib (first compound 0.4 µM) it was 0.152; with VX-11e + Pictilisib (first compound 1.265 µM), 0.125; with VX-11e + Pictilisib (first compound 4 µM), 0.116; with VX-11e + AZD7762 (first compound 0.04 µM), 0.486; with VX-11e + AZD7762 (first compound 0.1265 µM), 0.644. In addition, the relative viability in the experiment with VX-11e + AZD7762 (first compound 0.4 µM) is 0.234; with VX-11e + AZD7762 (first compound 1.265 µM) it was 0.315; with VX-11e + AZD7762 (first compound 4 µM), 0.166; in the experiment with VX-11e + Vorinostat (first compound 0.04 µM), 0.519; with VX-11e + Vorinostat (first compound 0.1265 µM), 0.59; in the experiment with VX-11e + Vorinostat (first compound 0.4 µM), 0.345. Further, the relative viability in the experiment with VX-11e + Vorinostat (first compound 1.265 µM) turned out to be 0.201; with VX-11e + Vorinostat (first compound 4 µM), 0.158.

On to ChaGo-K-1, for which the relative viability with VX-11e + Foretinib (first compound 0.04 µM) is 0.878; with VX-11e + Foretinib (first compound 0.1265 µM) it was 0.855; in the experiment with VX-11e + Foretinib (first compound 0.4 µM), 0.941; in the experiment with VX-11e + Foretinib (first compound 1.265 µM) it was 0.923; in the experiment with VX-11e + Foretinib (first compound 4 µM) it was 0.928; with VX-11e + Pictilisib (first compound 0.04 µM) it was 0.351. The relative viability stood at 0.587 with VX-11e + Pictilisib (first compound 0.4 µM); 0.567 with VX-11e + Pictilisib (first compound 1.265 µM); 0.569 in the experiment with VX-11e + Pictilisib (first compound 4 µM); 0.889 with VX-11e + AZD7762 (first compound 0.04 µM); 0.801 with VX-11e + AZD7762 (first compound 0.1265 µM); 0.796 with VX-11e + AZD7762 (first compound 0.4 µM). For the same cell line, the relative viability came to 0.896 in the experiment with VX-11e + AZD7762 (first compound 1.265 µM); 0.767 with VX-11e + AZD7762 (first compound 4 µM); 0.754 with VX-11e + Vorinostat (first compound 0.04 µM); 0.699 with VX-11e + Vorinostat (first compound 0.1265 µM); 0.717 with VX-11e + Vorinostat (first compound 0.4 µM); 0.656 with VX-11e + Vorinostat (first compound 1.265 µM). Further, the relative viability with VX-11e + Vorinostat (first compound 4 µM) amounted to 0.636.

Regarding NCI-H460, the relative viability with VX-11e + Foretinib (first compound 0.04 µM) was 0.872; with VX-11e + Foretinib (first compound 0.1265 µM), 0.984; in the experiment with VX-11e + Foretinib (first compound 0.4 µM), 0.896; in the experiment with VX-11e + Foretinib (first compound 1.265 µM) it was 0.872; with VX-11e + Foretinib (first compound 4 µM) it was 0.189; with VX-11e + Pictilisib (first compound 0.04 µM) it was 0.306. Moreover, the relative viability in the experiment with VX-11e + Pictilisib (first compound 0.1265 µM) is 0.27; in the experiment with VX-11e + Pictilisib (first compound 0.4 µM) it was 0.141; with VX-11e + Pictilisib (first compound 1.265 µM), 0.173; in the experiment with VX-11e + Pictilisib (first compound 4 µM), 0.1; with VX-11e + AZD7762 (first compound 0.04 µM), 0.561; in the experiment with VX-11e + AZD7762 (first compound 0.1265 µM), 0.54. The relative viability with VX-11e + AZD7762 (first compound 1.265 µM) is 0.646; with VX-11e + AZD7762 (first compound 4 µM), 0.378; with VX-11e + Vorinostat (first compound 0.04 µM) it was 0.855; with VX-11e + Vorinostat (first compound 0.1265 µM) it was 0.693; in the experiment with VX-11e + Vorinostat (first compound 0.4 µM), 0.692; in the experiment with VX-11e + Vorinostat (first compound 1.265 µM), 0.522. In addition, the relative viability with VX-11e + Vorinostat (first compound 4 µM) worked out at 0.0489.

As to HCC-78, the relative viability with VX-11e + Foretinib (first compound 0.1265 µM) is 0.54; in the experiment with VX-11e + Foretinib (first compound 0.4 µM) it was 0.542; with VX-11e + Foretinib (first compound 1.265 µM), 0.514; with VX-11e + Foretinib (first compound 4 µM), 0.496; with VX-11e + Pictilisib (first compound 0.04 µM), 0.23; in the experiment with VX-11e + Pictilisib (first compound 0.1265 µM), 0.185. The relative viability with VX-11e + Pictilisib (first compound 0.4 µM) came out at 0.31; with VX-11e + Pictilisib (first compound 1.265 µM), 0.189; with VX-11e + Pictilisib (first compound 4 µM), 0.224; with VX-11e + AZD7762 (first compound 0.04 µM), 0.58; with VX-11e + AZD7762 (first compound 0.1265 µM), 0.814; with VX-11e + AZD7762 (first compound 0.4 µM), 0.725. Also, the relative viability with VX-11e + AZD7762 (first compound 1.265 µM) stood at 0.371; with VX-11e + AZD7762 (first compound 4 µM), 0.527; with VX-11e + Vorinostat (first compound 0.04 µM), 0.479; with VX-11e + Vorinostat (first compound 0.1265 µM), 0.42; with VX-11e + Vorinostat (first compound 0.4 µM), 0.358; in the experiment with VX-11e + Vorinostat (first compound 1.265 µM), 0.482. Besides, the relative viability with VX-11e + Vorinostat (first compound 4 µM) is 0.405.

The values above are taken from the supplement of paper PMC10307832.
